Assay results published in patent US4305944A, “N-[(4-[3-cyano substituted pyridyl]piperazino)alkyl]-azaspirodecanediones” (priority 1980, dated 1981).
Read-outs that look alike come from different tables or passages of the source.

Key:
[1] = Test IV: spontaneous motor activity, activity cage mouse treated intraperitoneally (CNS depression); format: in vivo; settings: in vivo, ip
Excerpt: (§3) AED-0.3 (mg/kg. of body weight) activity cage,
(§4) Test IV involves measurement of spontaneous motor activity of mice as a reflection of the CNS depressant or sedative side effects of the test compound. […] The AED-0.3 reflects approximately 50% reduction in spontaneous motor activity.

fasted rat = experiment: Test I: conditioned avoidance response (CAR), fasted rat treated orally (psychotropic); format: in vivo; settings: for ED50: read-out: CAR-ED50
Procedure: I. CAR-ED50 (mg/kg. of body weight) fasted rat
treated orally (psychotropic).
Tests I and II refer to the conditioned avoidance response. […] Test I is a modification of the same conditioned avoidance response test except that fasted rats were employed and the animals were treated orally.

[2] = molecular target: alpha-adrenergic receptors in the cerebral cortex; experiment: Test VI: receptor binding assay, tritiated WB-4101 as ligand (alpha-adrenergic blockade); parameters: species or system rat; settings: for IC50: Test VI, tritiated WB-4101 as ligand, rat cerebral cortex, in excess of 100 nM is considered inactive
Excerpt: (§1) Tests V and VI are receptor binding assays which measure the ability of a compound to prevent the binding of a radiolabeled ligand to specific high affinity sites in brain tissue. According to the state of the art, various ligands have been identified with aspects of CNS function or potential for side effects. The ability of a compound to inhibit labeled ligand binding in vitro is considered to be a reflection of the compound's ability to effect the corresponding CNS function or side effect in vivo.

rat = rat catalepsy test; format: in vivo; settings: for rat catalepsy test result: oral doses of 200 mg/kg.
Procedure: (§2) That dose of Compound No. 7, however, constituted the ALD50 dose for rats. In mice the ALD50 of Compound No. 7 was determined to be 500 mg/kg. of body weight.

fed rat = experiment: Test II: conditioned avoidance response (CAR), fed rat treated intraperitoneally (psychotropic); format: in vivo; settings: for ED50: ip, read-out: CAR-ED50; for activity in the conditioned avoidance response test (Test II): in words
Procedure: Tests I and II refer to the conditioned avoidance response. Data with respect to Test II were obtained by the method described in the above Wu, et al. patents and publications in which trained rats were maintained on a standard laboratory diet and were treated intraperitoneally with the test drug. Test I is a modification of the same conditioned avoidance response test except that fasted rats were employed and the animals were treated orally.

[3] = molecular target: T1, alpha-adrenergic receptor (Rattus norvegicus, UniProt P43140); experiment: Test VII: alpha-adrenergic receptor blocking action in vitro, isolated rat seminal vesicle, 1-norepinephrine as spasmogen
T1 sequence (P43140 1-466): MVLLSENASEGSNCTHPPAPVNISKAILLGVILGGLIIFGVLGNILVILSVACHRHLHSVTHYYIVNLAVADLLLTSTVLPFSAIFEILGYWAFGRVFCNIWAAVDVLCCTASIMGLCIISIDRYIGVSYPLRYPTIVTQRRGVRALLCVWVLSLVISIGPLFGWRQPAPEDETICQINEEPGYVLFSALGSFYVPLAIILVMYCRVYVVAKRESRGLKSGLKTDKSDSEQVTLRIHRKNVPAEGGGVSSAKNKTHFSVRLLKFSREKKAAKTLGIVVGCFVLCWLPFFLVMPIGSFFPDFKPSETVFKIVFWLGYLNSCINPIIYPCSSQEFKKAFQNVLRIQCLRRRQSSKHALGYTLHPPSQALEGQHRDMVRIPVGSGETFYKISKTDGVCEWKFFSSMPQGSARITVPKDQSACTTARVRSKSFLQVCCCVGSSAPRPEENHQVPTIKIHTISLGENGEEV
Excerpt: (§5) IC50 (mcg/ml) alpha-adrenergic receptor blocking action
(§6) in vitro - rat seminal vesicle - 1-norepinephrine
(§7) Test VII is an in vitro measurement of alpha-adrenergic receptor blocking action employing the isolated seminal vesicle of the rat. […] A low value represents high activity.

ALD50 in mice = settings: mouse, in vivo
Procedure: as §2

[4] = molecular target: T2, dopamine binding, corpus striatum (Rattus norvegicus, UniProt P61169); experiment: Test V: receptor binding assay, tritiated spiperone as ligand, dopamine binding assay (psychotropic); settings: tritiated siperone as ligand, Compound 7: average of two determinations
T2 construct: The corpus striatum of male Sprague-Dawley rats (Charles River Laboratories) is employed as the test tissue; tissue Charles River Laboratories; host or cells: corpus striatum of male Sprague-Dawley rats
Excerpt: V. Receptor binding assay, IC50 in nM, tritiated siperone as
as §1
Test V is a dopamine binding assay which reflects neuroleptic activity (Burt, Creese, and Snyder, Molec. Pharmacol. 12:800 (1976); Burt, Creese, and Snyder, Science 196: 326 (1977); Creese, Burt, and Snyder, Science 192: 481 (1976)). The corpus striatum of male Sprague-Dawley rats (Charles River Laboratories) is employed as the test tissue. The radiolabeled ligand is tritiated spiperone. […] Thus, any value less than 1000 nM in Test V represents potential neuroleptic utility.

ALD50 for rats = settings: rat, in vivo, oral dose of the catalepsy test
Procedure: as §2

mouse [5] = experiment: Test IV: spontaneous motor activity, activity cage mouse treated intraperitoneally (CNS depression); format: in vivo; settings: in words; mouse
Excerpt: as §3, §4

[6] = Test III: spontaneous motor activity, activity cage mouse treated orally (CNS depression); settings: in vivo, po
Excerpt: (§8) AED-0.3 (mg/kg. of body weight) activity cage
mouse treated orally (CNS depression).
as §4

[7] = molecular target: T1, alpha-adrenergic receptor
Excerpt: as §5, §6, §7

mouse [8] = experiment: Test III: spontaneous motor activity, activity cage mouse treated orally (CNS depression); settings: in words; for sedative action (Tests III and IV): oral and intraperitoneal
Excerpt: as §8
mouse treated orally (CNS depression).
as §4

in vivo = settings: mouse, po
Excerpt: as §8
mouse treated orally (CNS depression).
as §4

[9] = Test IV, activity cage mouse, intraperitoneal, reflects approximately 50% reduction in spontaneous motor activity, read-out: AED-0.3
[10] = Test II, fed rat, intraperitoneal

T2 sequence (P61169 whole entry): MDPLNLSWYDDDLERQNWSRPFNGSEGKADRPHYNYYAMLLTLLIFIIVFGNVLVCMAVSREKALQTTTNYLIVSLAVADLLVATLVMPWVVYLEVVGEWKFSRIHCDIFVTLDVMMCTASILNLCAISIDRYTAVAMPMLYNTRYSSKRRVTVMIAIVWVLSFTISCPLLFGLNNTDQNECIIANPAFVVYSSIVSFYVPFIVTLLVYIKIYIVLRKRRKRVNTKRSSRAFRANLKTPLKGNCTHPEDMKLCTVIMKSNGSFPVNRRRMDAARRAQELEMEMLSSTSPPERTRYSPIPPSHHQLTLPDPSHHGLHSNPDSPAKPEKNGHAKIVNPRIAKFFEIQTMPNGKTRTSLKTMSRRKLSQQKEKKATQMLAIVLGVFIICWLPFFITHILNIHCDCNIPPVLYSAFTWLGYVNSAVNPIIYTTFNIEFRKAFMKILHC

Row | Compound | ED50 [1, 9] | IC50 [2] | ED50 (fed rat; [10]) | IC50 [3] | ED50 (fasted rat; Test I, fasted rat, oral) | rat catalepsy test result (rat) | ED50 [6] | other results
1 | CN(C)CCCN1c2ccccc2Sc2ccc(Cl)cc21 [Chlorpromazine, chlorpromazine] | 3.6 mg/kg | 31 nM | – | – | – | – | – | ED50 (fasted rat; Rattus norvegicus, po): 39 mg/kg; ED5 in the rat catalepsy test (rat): 4.1 mg/kg; ED50 (fed rat; Rattus norvegicus): 4.8 mg/kg; alpha-adrenergic blocking activity ([3]; in words, rat seminal vesicle): strong
2 | O=C1CC2(CCCC2)CC(=O)N1CCN1CCN(c2ccccn2)CC1 [compound 1] | 41 mg/kg | – | 22.6 mg/kg | 5830 nM | – | – | – | activity in the conditioned avoidance response test (Test II) (fed rat; fed rat, intraperitoneal): very substantially less active
3 | COc1cccnc1N1CCN(CCCCN2C(=O)CC3(CCCC3)CC2=O)CC1 [Compound No. 7] | – | 65 nM | – | – | 55 mg/kg | inactive | – | LD50 (ALD50 in mice): 500 mg/kg; IC50 [4]: 100 nM; LD50 (ALD50 for rats): 200 mg/kg
4 | COc1cccc(N2CCN(CCCN3C(=O)CC4(CCCC4)CC3=O)CC2)n1 [Compound No. 2] | 7.4 mg/kg | 48 nM | > 50 mg/kg | 182 nM | – | – | 82 mg/kg | activity by intraperitoneal route (Test IV) relative to oral route (Test III) (mouse [5]): several-fold stronger activity; alpha-adrenergic blocking agent (Tests VI and VII) [7]: relatively strong; activity in the conditioned avoidance response test (Test II) (fed rat; fed rat, intraperitoneal): very substantially less active
5 | N#Cc1cccnc1N1CCN(CCCCN2C(=O)CC3(CCCC3)CC2=O)CC1 [Compound No. 4, 2-[4-[4-(7,9-Dioxo-8-azaspiro[4.5]decan-8-yl)butyl]-1-piperazinyl]pyridine-3-carbonitrile] | – | 360 nM | – | – | 24 mg/kg | inactive | 97 mg/kg | potency in Test I (neuroleptic action) (fasted rat; in words, fasted rat, oral): good potency; potency in Test VI (alpha-adrenergic blocking action) ([2]; in words): low potency; potency in Test III (sedative action) (mouse [8]; oral): low potency; sedative action (Tests III and IV) (mouse [8]): lack of sedative action
6 | O=C1CC2(CCCC2)CC(=O)N1CCCCN1CCN(c2ccccn2)CC1 [Compound No. 3] | 2.6 mg/kg | 280 nM | 2.8 mg/kg | 871 nM | 34 mg/kg | – | 10 mg/kg | activity by intraperitoneal route (Test IV) relative to oral route (Test III) (mouse [5]): several-fold stronger activity; sedative action (Tests III and IV) (mouse [8]): high
7 | O=C1CC2(CCCC2)CC(=O)N1CCCCN1CCN(c2ncccn2)CC1 [Compound No. 6, buspirone] | – | – | 4.3 mg/kg | – | 48 mg/kg | inactive | – | ED50 ([1]; mouse): 33 mg/kg; ED50 (in vivo): 92 mg/kg
8 | CC1CN(c2ncccc2C#N)CCN1CCCCN1C(=O)CC2(CCCC2)CC1=O (centres unmarked) [compound 5, 2-[4-[4-(7,9-Dioxo-8-azaspiro[4.5]decan-8-yl)butyl]-3-methyl-1-piperazinyl]pyridine-3-carbonitrile] | – | – | – | – | 85 mg/kg | – | – | IC50 [4]: 400 nM
